Like-named read-outs stand apart in the source and are kept apart here.
Tests used:
[1] = biological target: T1, sodium iodide symporter (NIS), iodide uptake in FRTL5 cells (Rattus norvegicus, UniProt Q63008); assay: Inhibition of iodide uptake in FRTL5 cells, non radioactive arsenic/cerium assay; format: cell-based; conditions: NaI 10 μM, 1 hour, 20°C, read-out: IC50 (μM), inhibitory activity against iodide uptake in FRTL5 cells
T1 construct: endogenous in cells; host or cells: FRTL5 (rat thyroid-derived cells)
T1 sequence (Q63008 1-618): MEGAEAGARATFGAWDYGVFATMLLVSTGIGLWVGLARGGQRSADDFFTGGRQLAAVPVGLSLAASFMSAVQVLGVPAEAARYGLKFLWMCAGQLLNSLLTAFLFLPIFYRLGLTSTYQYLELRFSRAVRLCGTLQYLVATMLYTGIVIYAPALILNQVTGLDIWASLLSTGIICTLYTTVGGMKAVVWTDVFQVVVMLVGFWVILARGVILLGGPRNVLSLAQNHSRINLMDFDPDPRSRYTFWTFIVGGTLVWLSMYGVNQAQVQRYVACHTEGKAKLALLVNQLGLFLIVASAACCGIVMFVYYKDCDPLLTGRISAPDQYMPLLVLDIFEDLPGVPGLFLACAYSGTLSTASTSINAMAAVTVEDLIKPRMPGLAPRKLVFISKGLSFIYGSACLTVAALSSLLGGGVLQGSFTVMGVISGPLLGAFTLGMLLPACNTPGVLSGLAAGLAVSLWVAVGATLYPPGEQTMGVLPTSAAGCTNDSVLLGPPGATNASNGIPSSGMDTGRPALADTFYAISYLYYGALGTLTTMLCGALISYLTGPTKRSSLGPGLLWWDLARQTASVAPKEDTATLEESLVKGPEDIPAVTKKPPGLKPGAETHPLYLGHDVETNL
Protocol: Some of the synthesized compounds were evaluated for their ability to inhibit iodide entrapment in FRTL5 cells. The IC50 values were measured in at least […] independent experiments.
The biological activity of each compound was determined in FRTL5 cells, using a non radioactive arsenic/cerium assay as described in F. Waltz et al., Anal. Biochem., 2012, 396, 91-95. Compound potency was expressed as IC50, the concentration of compound necessary to achieve 50% inhibition of iodide uptake. Briefly, to FRTL5 cells at 70-90% confluence was added compound (200 μM, 10 μM, 0.5 μM, 25 nM, 1.2 nM, 60 pM, […], and 0.15 pM final), followed by NaI (10 μM final). After 1 hour incubation at 20±1° C., supernatant was removed and the cells were immediately assayed for iodide content using the modified As/Ce Sandell-Kolthoff reaction. NaClO4 was tested in each microplate as assay controls. The IC50 values of all compounds were measured least thrice independently.
Stock solutions of tested compounds were prepared in DMSO (20 mM) and that of NaClO4 in water (20 mM). These stock solutions were stored at 4° C. for up to 2 months. Sample dilutions: the day of the assay, a daughter plate (clear flat-bottomed 96-well polystyrene microplates, Costar 9017) was prepared from 20 mM stock solutions. NaClO4 (column 2) and DHPM samples (columns 4 to 11) were diluted at 10× the final concentration in uptake buffer.
FRTL5 cells were cultured as described in F. S. Ambesi-Impiombato et al., Proc. Natl. Acad. Sci. USA, 1980, 77, 3455-3459. Briefly, FRTL5 cells were cultured in Coon's modified F12 medium supplemented with 5% heat-inactivated fetal bovine serum (Invitrogen), 2 mM L-glutamine, 100 U/mL penicillin, 0.1 mg/mL streptomycin, 10 μg/mL insulin, 10 nM hydrocortisone, 10 ng/mL Gly-His-Lys acetate, 1 mU/mL TSH, 5 μg/mL transferrin at 37° C. and 5% CO2. For iodide uptake assays, 200 μL of FRTL5 cells with density of 250,000 cells/mL were dispensed in each well of clear flat-bottomed 96-well polystyrene microplates (Costar 3628) using the Multidrop 384 (ThermoFisher Scientific), and further cultured until confluence reached 80-90% (3-4 days).
The culture medium of FRTL5 monolayer cells at 80-90% confluence was replaced by uptake buffer (20° C.) via continuous aspiration/dispense cycle (600 μL) using a 96-needle head plate washer PW 384 (Tecan). The 96-needle head was set to a vertical position such that 80 μL of fresh uptake buffer remained in each well at the end of the cycle. The samples (10 μL each) from the daughter plate were transferred all at once to the assay plate using the 96-tip head pipettor Liquidator 96 (Mettler Toledo). Immediately after, 10 μL of a NaI solution at 100 μM was added to each well of the assay plate using the Liquidator 96. The assay plate was left to stand in the dark at 20±1° C. for 60 min. The assay plate was then washed with cold (4° C.) uptake buffer using the PW 384 plate washer and residual supernatant was immediately discarded by inverting the assay plate on absorbent paper.
Sodium iodide standards (S1 to S7) and water (S0) were distributed in duplicate (100 μL each) in the first and last column of the assay plate. Water (100 μL) was added to the columns with the Multidrop 384. 100 μL of the ammonium cerium (IV) sulfate solution (10.5 mM) was distributed into the columns, followed by 100 μL of the sodium arsenite (III) solution (24 mM) using the Multidrop 384. The assay plate was left to stand at 20±1° C. for 30 min. The absorbance at 420 nm (Abs420) was immediately recorded on a SpectraMax Plus 384 (Molecular Devices). A calibration curve was prepared for each plate by plotting the logarithmic conversion of the means of Abs420 (n=2) vs iodide standard concentrations (S0 to S7). The iodide concentrations in the samples were determined after linear regression of the calibration curve.

[2] = Table 1, variations at R1, averaged from three or four independent experiments
[3] = Table 2, variations at R5, averaged from three or four independent experiments
[4] = Table 3, variations at R2, averaged from three or four independent experiments
[5] = Table 4, variations at X, R3, R4, averaged from three or four independent experiments
[6] = Table 5, variations at Y, R1, R3, R4, R5, averaged from two to four independent experiments

Row | Structure (SMILES) | melting point | IC50 [1, 6] | also measured
1 | COc1ccc(COC(=O)C2=C(C)NC(=O)NC2c2ccc(C)o2)cc1 (stereo not shown) [Compound 29, 4-Methoxybenzyl 6-methyl-2-oxo-4-(5-methylfuran-2-yl)-1,2,3,4-tetrahydropyrimidine-5-carboxylate] | 157 to 159 °C | – | IC50 [1, 2]: 0.09 µM
2 | CC1=C(C(=O)OCc2ccccc2Cl)C(c2ccccc2)NC(=O)N1 (stereo not shown) [Compound 33, 2-Chlorobenzyl 6-methyl-2-oxo-4-phenyl-1,2,3,4-tetrahydropyrimidine-5-carboxylate] | 193 to 195 °C | – | IC50 [1, 3]: 0.35 µM
3 | CC1=C(C(=O)OCc2ccccc2C)C(c2ccccc2)NC(=O)N1 (stereo not shown) [Compound 36, 2-Methylbenzyl 6-methyl-2-oxo-4-phenyl-1,2,3,4-tetrahydropyrimidine-5-carboxylate] | 157 to 159 °C | – | IC50 [1, 3]: 0.25 µM
4 | COc1ccc(COC(=O)C2=C(C)N(C)C(=O)NC2c2ccco2)cc1 (stereo not shown) [Compound 53, 4-Methoxybenzyl 4-(furan-2-yl)-1,6-dimethyl-2-oxo-1,2,3,4-tetrahydropyrimidine-5-carboxylate] | 112 to 113 °C | 0.09 µM | –
5 | COc1cccc(COC(=O)C2=C(C)NC(=O)NC2c2ccco2)c1 (stereo not shown) [Compound 55, 3-methoxybenzyl 4-(furan-2-yl)-6-methyl-2-oxo-1,2,3,4-tetrahydropyrimidine-5-carboxylate] | 165 to 166 °C | 0.00057 µM | –
6 | COc1cccc(COC(=O)C2=C(C)N(C)C(=O)NC2c2ccco2)c1 (stereo not shown) [Compound 56, 3-Methoxybenzyl 4-(furan-2-yl)-1,6-dimethyl-2-oxo-1,2,3,4-tetrahydropyrimidine-5-carboxylate] | 155 to 156 °C | 0.075 µM | –
7 | COc1ccc(COC(=O)C2=C(C)N(C)C(=O)N(C)C2c2ccco2)cc1OC (stereo not shown) [Compound 58, 3,4-Dimethoxybenzyl 4-(furan-2-yl)-1,3,6-trimethyl-2-oxo-1,2,3,4-tetrahydropyrimidine-5-carboxylate] | 122 to 124 °C | 0.065 µM | –
8 | CC1=C(C(=O)OCc2ccc3c(c2)OCO3)C(c2ccco2)NC(=O)N1 (stereo not shown) [Compound 59, benzo[d][1,3]dioxol-5-ylmethyl 4-(furan-2-yl)-6-methyl-2-oxo-1,2,3,4-tetrahydropyrimidine-5-carboxylate] | 169 to 171 °C | 0.004 µM | –
9 | CC1=C(C(=O)OCc2ccc3c(c2)OCO3)C(c2ccco2)NC(=O)N1C (stereo not shown) [Compound 60, Benzo[d][1,3]dioxol-5-ylmethyl 4-(furan-2-yl)-1,6-dimethyl-2-oxo-1,2,3,4-tetrahydropyrimidine-5-carboxylate] | 141 to 143 °C | 0.073 µM | –

Continued, in another order:

Row | melting point | IC50 [1, 6] | Structure (SMILES) | also measured
10 | 152 to 154 °C | – | COc1ccc(COC(=O)C2=C(C)NC(=O)NC2c2cccs2)cc1 (stereo not shown) [Compound 30, 4-Methoxybenzyl 4-(thiophen-2-yl)-6-methyl-2-oxo-1,2,3,4-tetrahydropyrimidine-5-carboxylate] | IC50 [1, 2]: 0.05 µM
11 | 156 to 158 °C | – | COc1ccc(COC(=O)C2=C(C)NC(=O)NC2c2ccsc2)cc1 (stereo not shown) [Compound 31, 4-Methoxybenzyl 6-methyl-2-oxo-4-(thiophen-3-yl)-1,2,3,4-tetrahydropyrimidine-5-carboxylate] | IC50 [1, 2]: 0.04 µM
12 | 174 to 175 °C | – | CC1=C(C(=O)OCc2ccccc2)C(c2ccccc2)NC(=O)N1 (stereo not shown) [Compound 32, Benzyl 6-methyl-2-oxo-4-phenyl-1,2,3,4-tetrahydropyrimidine-5-carboxylate] | IC50 [1, 3]: 0.19 µM
13 | 216 to 217 °C | – | CC1=C(C(=O)OCc2ccc(Cl)cc2)C(c2ccccc2)NC(=O)N1 (stereo not shown) [Compound 34, 4-Chlorobenzyl 6-methyl-2-oxo-4-phenyl-1,2,3,4-tetrahydropyrimidine-5-carboxylate] | IC50 [1, 3]: 0.3 µM
14 | 196 to 197 °C | – | CC1=C(C(=O)OCc2ccc(F)cc2)C(c2ccccc2)NC(=O)N1 (stereo not shown) [Compound 35, 4-Fluorobenzyl 6-methyl-2-oxo-4-phenyl-1,2,3,4-tetrahydropyrimidine-5-carboxylate] | IC50 [1, 3]: 0.2 µM
15 | 62 to 65 °C | – | CCC1=C(C(=O)OCc2ccc(OC)cc2)C(c2ccccc2)NC(=O)N1 (stereo not shown) [Compound 40, 4-Methoxybenzyl 6-ethyl-2-oxo-4-phenyl-1,2,3,4-tetrahydropyrimidine-5-carboxylate] | IC50 [1, 4]: 0.07 µM
16 | 140 to 142 °C | – | COc1ccc(COC(=O)C2=C(Cc3ccccc3)NC(=O)NC2c2ccccc2)cc1 (stereo not shown) [Compound 45, 4-Methoxybenzyl 6-benzyl-2-oxo-4-phenyl-1,2,3,4-tetrahydropyrimidine-5-carboxylate] | IC50 [1, 4]: 0.25 µM
17 | 213 to 216 °C | – | COc1ccc(COC(=O)C2=C(CNC(=O)c3ccccc3)NC(=O)NC2c2ccccc2)cc1 (stereo not shown) [Compound 47, 4-Methoxybenzyl 2-oxo-6-(benzamidomethyl)-4-phenyl-1,2,3,4-tetrahydropyrimidine-5-carboxylate] | IC50 [1, 4]: 1.2 µM
18 | 78 to 80 °C | – | COc1ccc(COC(=O)C2=C(c3cccs3)NC(=O)NC2c2ccccc2)cc1 (stereo not shown) [Compound 48, 4-Methoxybenzyl 2-oxo-4-phenyl-6-(thiophen-2-yl)-1,2,3,4-tetrahydropyrimidine-5-carboxylate] | IC50 [1, 4]: 0.55 µM
19 | 134 to 136 °C | – | COc1ccc(COC(=O)C2=C(C)N(C)C(=O)NC2c2ccccc2)cc1 (stereo not shown) [Compound 50, 4-Methoxybenzyl 1,6-dimethyl-2-oxo-4-phenyl-1,2,3,4-tetrahydropyrimidine-5-carboxylate] | IC50 [1, 5]: 0.075 µM
20 | 174 to 175 °C | – | COc1ccc(COC(=O)C2=C(C)NC(=S)NC2c2ccccc2)cc1 (stereo not shown) [Compound 52, 4-methoxybenzyl 6-methyl-4-phenyl-2-thioxo-1,2,3,4-tetrahydropyrimidine-5-carboxylate] | IC50 [1, 5]: 0.095 µM
